In assay [1] the target is biotinylated human IL-17A / AF647-labeled human IL-17RA (Homo sapiens, UniProt Q16552). Briefly: Human IL-17A×IL-17RA TR-FRET assay. In kind it is binding. The procedure, abridged:
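Compounds tested in duplicate at each concentration; neutral controls contain all components with DMSO in place of compound.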
A general note: TR-FRET usually uses a lanthanide donor and a delayed reading to cut background.

In assay [2] the target is recombinant human IL-17AA (Homo sapiens, UniProt Q16552). Briefly: IL-6 release from NHDF cells, IL-17AA plus TNF-α stimulation. The format is cell-based. Conditions: 24 hours, IL-6 by ELISA. The procedure, abridged: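 IL-17-specific IL-6 release from NHDF cells adhered overnight; compounds pre-incubated 30 min at room temperature with human IL-17AA plus TNF-α, then 24 h on cells at 37° C. Final DMSO 0.1% or plasma 20%; IL-6 by ELISA (450 nm). TNF-α-only IL-6 subtracted before IC50 fit.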
Sequence of recombinant human IL-17AA (Q16552 24-155): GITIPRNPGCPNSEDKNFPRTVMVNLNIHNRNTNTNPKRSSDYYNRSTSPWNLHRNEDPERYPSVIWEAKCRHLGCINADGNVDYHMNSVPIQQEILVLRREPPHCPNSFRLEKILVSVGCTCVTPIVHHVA
(In general: ELISA stands for enzyme-linked immunosorbent assay.)

[3] abbreviates: TR-FRET, biotinylated human IL-17A 5 nM, AF647-labeled human IL-17RA 30 nM, read-out: IL17AA FRET/ IL17Rawt IC50.
Setting [4] is: NHDF cells, IL-17AA 30 pM plus TNF-α 6 pM, read-out: IL17AA + TNF IC50 IL-6.
[5] abbreviates: IL17AA FRET/ IL17Rawt IC50, TR-FRET, biotinylated human IL-17A 5 nM, AF647-labeled human IL-17RA 30 nM.
Where [6] appears, read: IL17AA + TNF IC50 IL-6, NHDF cells, IL-17AA 30 pM plus TNF-α 6 pM.
[7] abbreviates: TR-FRET, 5 nM IL-17A, 30 nM IL-17RA, read-out: IL17AA FRET/ IL17Rawt IC50.
[8] abbreviates: NHDF cells, IL-17AA 30 pM + TNF-α 6 pM, read-out: IL17AA + TNF IC50 IL-6.

Each structure is given as a SMILES string. Read-outs that look alike come from different tables or passages of the source.

Sequence of biotinylated human IL-17A / AF647-labeled human IL-17RA (Q16552 24-155): as above

As to `Cc1cc[n+]([O-])c(C)c1-c1ccc(NC(=O)[C@@H](NC(=O)c2conc2C)[C@@H]2CC=C(F)CC2)cc1` [Example 29, 3-(4-((S)-2-((S)-4-fluorocyclohex-3-en-1-yl)-2-(3-methylisoxazole-4-carboxamido)acetamido)phenyl)-2,4-dimethylpyridine 1-oxide], the IC50 in assay [1] (setting [3]) was 85 nM; in assay [2] (setting [4]) it was 47 nM.

Take `Cc1c(-c2ccc(NC(=O)[C@@H](NC(=O)c3ccnn3C)C3CCC(F)(F)CC3)cc2)c(Cl)cc[n+]1[O-]` [Example 52, (S)-4-chloro-3-(4-(2-(4,4-difluorocyclohexyl)-2-(1-methyl-1H-pyrazole-5-carboxamido)acetamido)phenyl)-2-methylpyridine 1-oxide]: the IC50 in assay [1] (setting [3]) was 43 nM; in assay [2] (setting [4]) it was 80 nM.

With `CCn1nccc1C(=O)N[C@H](C(=O)Nc1ccc(-c2c(Cl)cc[n+]([O-])c2C)cc1)C1CCC(F)(F)CC1` (single isomer, unassigned) [Example 13a], the values for the IC50 in assay [1] (setting [3]) and in assay [2] (setting [4]) were 16 nM and 11 nM, respectively.

For the molecule `Cc1c[n+]([O-])cc(C)c1-c1ccc(NC(=O)[C@@H](NC(=O)c2ccc3n2CCNC3)C2CCCCCC2)cc1` [Example 116, (S)-4-(4-(2-cycloheptyl-2-(1,2,3,4-tetrahydropyrrolo[1,2-a]pyrazine-6-carboxamido)acetamido)phenyl)-3,5-dimethylpyridine 1-oxide], the figures for the IC50 in assay [1] (setting [3]) and in assay [2] (setting [4]) were 304 nM and 118 nM, respectively.

For the molecule `Cc1c(-c2ccc(NC(=O)[C@@H](NC(=O)c3ccnn3C)C3CCCCC3)cc2)c(Cl)cc[n+]1[O-]` [Example 45, (S)-4-chloro-3-(4-(2-cyclohexyl-2-(1-methyl-1H-pyrazole-5-carboxamido)acetamid)phenyl)-2-methylpyridine 1-oxide], the IC50 in assay [1] (setting [5]) and in assay [2] (setting [6]) was 26 nM in each case.

Turning to `Cc1cc[n+]([O-])c(C(F)F)c1-c1ccc(NC(=O)[C@@H](NC(=O)c2ccnn2C)C2CCCCC2)cc1` [Example 104, (S)-3-(4-(2-cyclohexyl-2-(1-methyl-1H-pyrazole-5-carboxamido)acetamido)phenyl)-2-(difluoromethyl)-4-methylpyridine 1-oxide], the IC50 in assay [1] (setting [3]) is 1600 nM; in assay [2] (setting [4]), 139 nM.

As to `Cc1c(-c2ccc(NC(=O)C(NC(=O)c3ccnn3C)C3CC4C(C3)C4(F)F)cc2)c(Cl)cc[n+]1[O-]` (single isomer, unassigned) [Example 54a], the figures for the IC50 in assay [1] (setting [5]) and in assay [2] (setting [6]) were 28 nM and 34 nM, respectively.

`Cc1cc(-c2ccc(NC(=O)[C@@H](NC(=O)c3ccnn3C)C3CCC(F)(F)CC3)cc2)c(C)[n+]([O-])c1` [Example 171, (S)-3-(4-(2-(4,4-difluorocyclohexyl)-2-(1-methyl-1H-pyrazole-5-carboxamido)acetamido)phenyl)-2,5-dimethylpyridine 1-oxide]: the IC50 worked out at 465 nM in assay [1] (IL17AA FRET/ IL17Rawt IC50, TR-FRET, 5 nM IL-17A, 30 nM IL-17RA) and 398 nM in assay [2] (IL17AA + TNF IC50 IL-6, NHDF cells, IL-17AA 30 pM + TNF-α 6 pM).

With `CCn1nccc1C(=O)NC(C(=O)Nc1ccc(-c2c(Cl)cc[n+]([O-])c2C)cc1)C1CC2CC2C1` (centres unmarked) [Example 70, 3-(4-(2-(bicyclo[3.1.0]hexan-3-yl)-2-(1-ethyl-1H-pyrazole-5-carboxamido)acetamido)phenyl)-4-chloro-2-methylpyridine 1-oxide], the results for the IC50 in assay [1] (setting [3]) and in assay [2] (setting [4]) were 84 nM and 26 nM, respectively.

On to `Cc1c(-c2ccc(NC(=O)[C@@H](NC(=O)c3ccnn3C)C3CCC(F)(F)CC3)cc2)c(C(F)(F)F)cc[n+]1[O-]` [Example 27, (S)-3-(4-(2-(4,4-difluorocyclohexyl)-2-(1-methyl-1H-pyrazole-5-carboxamido)acetamido)phenyl)-2-methyl-4-(trifluoromethyl)pyridine 1-oxide], for which the IC50 in assay [1] (setting [3]) came out at 121 nM; in assay [2] (setting [4]), 115 nM.

With `Cc1c(-c2ccc(NC(=O)[C@@H](NC(=O)c3ccnn3C)C3CC=C(F)CC3)cc2)c(C(F)(F)F)cc[n+]1[O-]` (stereo partly drawn) [Example 65, 3-(4-((2S)-2-(4-fluorocyclohex-3-en-1-yl)-2-(1-methyl-1H-pyrazole-5-carboxamido)acetamido)phenyl)-2-methyl-4-(trifluoromethyl)pyridine 1-oxide], the IC50 in assay [1] (setting [3]) was 57 nM; in assay [2] (setting [4]) it was 24 nM.

`Cc1nocc1C(=O)N[C@H](C(=O)Nc1ccc(-c2cc(Cl)c[n+]([O-])c2C)cc1)C1CCC(F)(F)CC1` [Example 173, (S)-5-chloro-3-(4-(2-(4,4-difluorocyclohexyl)-2-(3-methylisoxazole-4-carboxamido)acetamido)phenyl)-2-methylpyridine 1-oxide]: the IC50 in assay [1] (setting [7]) came to 659 nM; in assay [2] (setting [8]) it was 1680 nM.

For `Cc1cc[n+]([O-])c(C)c1-c1ccc(NC(=O)C(NC(=O)c2ccc3n2CCNC3)C2CCC(C(F)(F)F)CC2)cc1` [Example 178, 2,4-dimethyl-3-(4-((S)-2-(1,2,3,4-tetrahydropyrrolo[1,2-a]pyrazine-6-carboxamido)-2-((1r,4S)-4-(trifluoromethyl)cyclohexyl)acetamido)phenyl)pyridine 1-oxide], the IC50 in assay [1] (setting [7]) is 8.96 nM; in assay [2] (setting [8]), 30 nM.

Take `Cc1cc[n+]([O-])c(C)c1-c1ccc(NC(=O)[C@@H](NC(=O)c2ccnn2C)[C@H]2CCCc3ccccc32)cc1` [Example 1, 2,4-dimethyl-3-(4-((S)-2-(1-methyl-1H-pyrazole-5-carboxamido)-2-((S)-1,2,3,4-tetrahydronaphthalen-1-yl)acetamido)phenyl)pyridine 1-oxide]: the values for the IC50 in assay [1] (setting [3]) and in assay [2] (setting [4]) were 8 nM and 4 nM, respectively.

As to `Cc1cc[n+]([O-])c(C)c1-c1ccc(NC(=O)[C@@H](NC(=O)c2ccn3c2CNCC3)C2CCCCCC2)cc1` [Example 189, (S)-3-(4-(2-cycloheptyl-2-(1,2,3,4-tetrahydropyrrolo[1,2-a]pyrazine-8-carboxamido)acetamido)phenyl)-2,4-dimethylpyridine 1-oxide], the IC50 was 118 nM in assay [1] (setting [7]) and 15.5 nM in assay [2] (setting [8]).

Regarding `Cc1cc[n+]([O-])c(C)c1-c1ccc(NC(=O)[C@@H](NC(=O)c2ccn3c2CN(C)CC3)C2CCCCCC2)cc1` [Example 119, (S)-3-(4-(2-cycloheptyl-2-(2-methyl-1,2,3,4-tetrahydropyrrolo[1,2-a]pyrazine-8-carboxamido)acetamido)phenyl)-2,4-dimethylpyridine 1-oxide], the results for the IC50 in assay [1] (setting [3]) and in assay [2] (setting [4]) were 130 nM and 15 nM, respectively.

Regarding `Cc1c(-c2ccc(NC(=O)[C@@H](NC(=O)c3ccnn3C)C3CC=C(F)CC3)cc2)c(Cl)cc[n+]1[O-]` (stereo partly drawn) [Example 55, 4-chloro-3-(4-((2S)-2-(4-fluorocyclohex-3-en-1-yl)-2-(1-methyl-1H-pyrazole-5-carboxamido)acetamido)phenyl)-2-methylpyridine 1-oxide], the IC50 in assay [1] (setting [3]) was determined as 38 nM; in assay [2] (setting [4]) it was 27 nM.

Consider `Cc1cc[n+]([O-])c(C)c1-c1ccc(NC(=O)[C@@H](NC(=O)c2ccnn2C(C)C)C(c2ccccc2)c2ccccc2)cc1` [Example 68, (S)-3-(4-(2-(1-isopropyl-1H-pyrazole-5-carboxamido)-3,3-diphenylpropanamido)phenyl)-2,4-dimethylpyridine 1-oxide], for which the IC50 in assay [1] (setting [3]) came to 76 nM; in assay [2] (setting [4]) it was 16 nM.

In the case of `Cc1c(-c2cc(F)c(NC(=O)[C@@H](NC(=O)c3ccnn3C)C3CCCCC3)cc2F)c(Cl)cc[n+]1[O-]` [Example 63, 4-chloro-3-(4-((S)-2-cyclohexyl-2-(1-methyl-1H-pyrazole-5-carboxamido)acetamido)-2,5-difluorophenyl)-2-methylpyridine 1-oxide], the IC50 was determined as 247 nM in assay [1] (setting [3]) and 57 nM in assay [2] (setting [4]).

Take `Cc1c(-c2ccc(NC(=O)[C@@H](NC(=O)c3ccc4n3CCNC4)C3CCCCC3)cc2)c(Cl)cc[n+]1[O-]` [Example 206, (S)-4-chloro-3-(4-(2-cyclohexyl-2-(1,2,3,4-tetrahydropyrrolo[1,2-a]pyrazine-6-carboxamido)acetamido)phenyl)-2-methylpyridine 1-oxide]: the figures for the IC50 in assay [1] (setting [7]) and in assay [2] (setting [8]) were 296 nM and 63 nM, respectively.

Turning to `Cc1c(-c2ccc(NC(=O)[C@@H](NC(=O)c3ccc4n3CCN(C3COC3)C4)C3CCCCC3)cc2F)c(Cl)cc[n+]1[O-]` [Example 133, 4-chloro-3-(4-((S)-2-cyclohexyl-2-(2-(oxetan-3-yl)-1,2,3,4-tetrahydropyrrolo[1,2-a]pyrazine-6-carboxamido)acetamido)-2-fluorophenyl)-2-methylpyridine 1-oxide], the IC50 in assay [1] (setting [3]) is 99 nM; in assay [2] (setting [4]), 17 nM.

With `CCc1nocc1C(=O)N[C@H](C(=O)Nc1ccc(-c2c(C)cc[n+]([O-])c2C)cc1)[C@H]1CCCC(F)(F)C1` [Example 30, 3-(4-((S)-2-((S)-3,3-difluorocyclohexyl)-2-(3-ethylisoxazole-4-carboxamido)acetamido)phenyl)-2,4-dimethylpyridine 1-oxide], the results for the IC50 in assay [1] (setting [3]) and in assay [2] (setting [4]) were 46 nM and 12 nM, respectively.

For the origin of these results see patent US12600728B2, “Interleukin-17 inhibitors” (priority 2020, dated 2026).
